Measured values as given in PubChem BioAssay AID2060620 (Molecular Pharmacology Branch, DTP, NCI, 2025).
Where “and” joins values, the source holds several entries; their conditions need not be identical. Equal values may be shown once.

Test system: 328373-195-R-J1-PDC complex spheroids, viability % test/control
Test: Anticancer human tumor 328373-195-R-J1-PDC patient-derived head and neck squamous carcinoma cell line growth inhibition [CLK]
Details: for viability, T/C: stronger effect = lower value
In short: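 Patient-derived tumor cells grown as complex spheroids with HUVEC endothelial cells and mesenchymal stem cells, treated with drug combinations. Concentrations descend in half-log steps from near clinical Cmax, or from 10 microM if Cmax unknown.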

[1] = curve of first compound, second compound 0.0316 µM
[2] = curve of first compound, second compound 0.1 µM
[3] = curve of first compound, second compound 0.316 µM
[4] = curve of first compound, second compound 1 µM
[5] = curve of first compound, second compound 3.16 µM
[6] = curve of first compound, second compound 10 µM
[7] = second compound 0.0316 µM, first compound 0.0316 µM
[8] = second compound 0.0316 µM, first compound 0.1 µM
[9] = second compound 0.0316 µM, first compound 0.316 µM
[10] = second compound 0.0316 µM, first compound 1 µM
[11] = second compound 0.1 µM, first compound 0.0316 µM
[12] = second compound 0.1 µM, first compound 0.1 µM
[13] = second compound 0.1 µM, first compound 0.316 µM
[14] = second compound 0.1 µM, first compound 1 µM
[15] = second compound 0.316 µM, first compound 0.0316 µM
[16] = second compound 0.316 µM, first compound 0.1 µM
[17] = second compound 0.316 µM, first compound 0.316 µM
[18] = second compound 0.316 µM, first compound 1 µM
[19] = second compound 1 µM, first compound 0.0316 µM
[20] = second compound 1 µM, first compound 0.1 µM
[21] = second compound 1 µM, first compound 0.316 µM
[22] = second compound 1 µM, first compound 1 µM
[23] = second compound 3.16 µM, first compound 0.0316 µM
[24] = second compound 3.16 µM, first compound 0.1 µM
[25] = second compound 3.16 µM, first compound 0.316 µM
[26] = second compound 3.16 µM, first compound 1 µM
[27] = second compound 10 µM, first compound 0.0316 µM
[28] = second compound 10 µM, first compound 0.1 µM
[29] = second compound 10 µM, first compound 0.316 µM
[30] = second compound 10 µM, first compound 1 µM
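Also: spheroids exposed to the agents for 7 days.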

Which results are given for `COc1cccc2c1C(=O)c1c(O)c3c(c(O)c1C2=O)CC(O)(C(=O)CO)CC3OC1CC(N)C(O)C(C)O1` (stereo not drawn) + CN1CCN(c2cc(C(=O)Nc3cc4cc(-c5cnn(C)c5)ccc4cn3)ccn2)CC1?
IC50 [1]: < 31.6 nM; IC50 [2]: < 31.6 nM; IC50 [3]: < 31.6 nM; IC50 [4]: < 31.6 nM; IC50 [5]: < 31.6 nM; IC50 [6]: < 31.6 nM; viability, T/C [7]: 13.4%; viability, T/C [8]: 8.66%; viability, T/C [9]: 2.1%; viability, T/C [10]: 0.22%; viability, T/C (second compound 0.0316 µM, first compound 3.16 µM): 2.55%; viability, T/C (second compound 0.0316 µM, first compound 10 µM): 1.06%; viability, T/C [11]: 14.7%; viability, T/C [12]: 5.57%; viability, T/C [13]: 0.44%; viability, T/C [14]: 0.19%; viability, T/C (second compound 0.1 µM, first compound 3.16 µM): 0.12%; viability, T/C (second compound 0.1 µM, first compound 10 µM): 1.87%; viability, T/C [15]: 13.2%; viability, T/C [16]: 2.4%; viability, T/C [17]: 3.38%; viability, T/C [18]: 1.11%; viability, T/C (second compound 0.316 µM, first compound 3.16 µM): 0.1%; viability, T/C (second compound 0.316 µM, first compound 10 µM): 2%; viability, T/C [19]: 1.05%; viability, T/C [20]: 2.51%; viability, T/C [21]: 4.63%; viability, T/C [22]: 0.09%; viability, T/C (second compound 1 µM, first compound 3.16 µM): 1.51%; viability, T/C (second compound 1 µM, first compound 10 µM): 0.08%; viability, T/C [23]: 0.07%; viability, T/C [24]: 4.11%; viability, T/C [25]: 0.93%; viability, T/C [26]: 0.07%; viability, T/C (second compound 3.16 µM, first compound 3.16 µM): 1.76%; viability, T/C (second compound 3.16 µM, first compound 10 µM): 0.11%; viability, T/C [27]: 0.1%; viability, T/C [28]: 0.75%; viability, T/C [29]: 0.41%; viability, T/C [30]: 0.11%; viability, T/C (second compound 10 µM, first compound 3.16 µM): 2.76%; viability, T/C (second compound 10 µM, first compound 10 µM): 0.61%

With `CCN1CCN(Cc2ccc(Nc3ncc(F)c(-c4cc(F)c5nc(C)n(C(C)C)c5c4)n3)nc2)CC1` as the compound, how does the viability, T/C (compound 0.00316 µM) read?
Its viability, T/C is 101% and 89.8%.

What about the viability, T/C (compound 0.01 µM) of the same compound?
The viability, T/C was 77.4% and 78.7%.

And the viability, T/C (compound 0.0316 µM)?
The viability, T/C was 82.7% and 83.1%.

What about the viability, T/C (compound 0.1 µM) of the same compound?
Its viability, T/C is 77.4% and 78.6%.

And the viability, T/C (compound 0.316 µM)?
The viability, T/C was 64.9% and 69.7%.

And the viability, T/C (compound 1 µM)?
The viability, T/C was 59.8% and 52.3%.

And the IC50 (curve of compound)?
Its IC50 is over 1000 nM.

`CCN1CCN(Cc2ccc(Nc3ncc(F)c(-c4cc(F)c5nc(C)n(C(C)C)c5c4)n3)nc2)CC1` + CNC(=O)c1ccc(Nc2nc(OC3CCCC3)c3c(-c4ccc5nc(C)oc5c4)c[nH]c3n2)c(OC)c1 was tested. Which IC50 [1] did it give?
Its IC50 is 54.9 nM.

And the IC50 [2]?
The IC50 was under 3.16 nM.

What about the IC50 [3] of the same compound?
Its IC50 is under 3.16 nM.

And the IC50 [4]?
Its IC50 is under 3.16 nM.

And the IC50 [5]?
The IC50 was under 3.16 nM.

And the IC50 [6]?
Its IC50 is under 3.16 nM.

And the viability, T/C (second compound 0.0316 µM, first compound 0.00316 µM)?
The viability, T/C was 53.3%.

What about the viability, T/C (second compound 0.0316 µM, first compound 0.01 µM) of the same compound?
Its viability, T/C is 60.8%.

What about the viability, T/C [7] of the same compound?
Its viability, T/C is 46.3%.

What about the viability, T/C [8] of the same compound?
The viability, T/C was 48.5%.

What about the viability, T/C [9] of the same compound?
Its viability, T/C is 44.6%.

And the viability, T/C [10]?
The viability, T/C was 36.1%.

What about the viability, T/C (second compound 0.1 µM, first compound 0.00316 µM) of the same compound?
Its viability, T/C is 12.7%.

And the viability, T/C (second compound 0.1 µM, first compound 0.01 µM)?
The viability, T/C was 11.1%.

And the viability, T/C [11]?
The viability, T/C was 13.1%.

What about the viability, T/C [12] of the same compound?
Its viability, T/C is 13.4%.

And the viability, T/C [13]?
The viability, T/C was 15.7%.

And the viability, T/C [14]?
The viability, T/C was 19.4%.

And the viability, T/C (second compound 0.316 µM, first compound 0.00316 µM)?
The viability, T/C was 11.2%.

And the viability, T/C (second compound 0.316 µM, first compound 0.01 µM)?
The viability, T/C was 11.9%.

What about the viability, T/C [15] of the same compound?
Its viability, T/C is 11.8%.

And the viability, T/C [16]?
The viability, T/C was 12.6%.

And the viability, T/C [17]?
The viability, T/C was 17.2%.

What about the viability, T/C [18] of the same compound?
The viability, T/C was 14.6%.

What about the viability, T/C (second compound 1 µM, first compound 0.00316 µM) of the same compound?
The viability, T/C was 9.58%.

What about the viability, T/C (second compound 1 µM, first compound 0.01 µM) of the same compound?
Its viability, T/C is 12%.

And the viability, T/C [19]?
The viability, T/C was 12.7%.

And the viability, T/C [20]?
Its viability, T/C is 12.3%.

What about the viability, T/C [21] of the same compound?
Its viability, T/C is 14.1%.

What about the viability, T/C [22] of the same compound?
Its viability, T/C is 15.2%.

What about the viability, T/C (second compound 3.16 µM, first compound 0.00316 µM) of the same compound?
Its viability, T/C is 12%.

And the viability, T/C (second compound 3.16 µM, first compound 0.01 µM)?
The viability, T/C was 10.5%.

And the viability, T/C [23]?
Its viability, T/C is 12.8%.

What about the viability, T/C [24] of the same compound?
The viability, T/C was 15%.

What about the viability, T/C [25] of the same compound?
Its viability, T/C is 15.9%.

And the viability, T/C [26]?
Its viability, T/C is 16.7%.

What about the viability, T/C (second compound 10 µM, first compound 0.00316 µM) of the same compound?
The viability, T/C was 14.5%.

What about the viability, T/C (second compound 10 µM, first compound 0.01 µM) of the same compound?
The viability, T/C was 11.4%.

And the viability, T/C [27]?
The viability, T/C was 15.1%.

And the viability, T/C [28]?
Its viability, T/C is 15.1%.

And the viability, T/C [29]?
The viability, T/C was 17.6%.

What about the viability, T/C [30] of the same compound?
Its viability, T/C is 13.1%.

With `COc1c(OCCCN2CCOCC2)ccc2c3n(c(=NC(=O)c4cnc(N)nc4)nc12)CCN3` as the compound, how does the viability, T/C (compound 0.00316 µM) read?
Its viability, T/C is 98.7% and 88.6%.

What about the viability, T/C (compound 0.01 µM) of the same compound?
The viability, T/C was 87.2% and 84.5%.

What about the viability, T/C (compound 0.0316 µM) of the same compound?
The viability, T/C was 64.5% and 74.9%.

And the viability, T/C (compound 0.1 µM)?
The viability, T/C was 51.9% and 66.5%.

And the viability, T/C (compound 0.316 µM)?
The viability, T/C was 19.2% and 24.7%.

What about the viability, T/C (compound 1 µM) of the same compound?
Its viability, T/C is 10.7% and 7.66%.

And the IC50 (curve of compound)?
The IC50 was 80.1 nM and 152 nM.

With `CNC(=O)c1ccc(Nc2nc(OC3CCCC3)c3c(-c4ccc5nc(C)oc5c4)c[nH]c3n2)c(OC)c1` as the compound, how does the viability, T/C (compound 0.1 µM) read?
Its viability, T/C is 12.1% [middle of 12 runs].

And the viability, T/C (compound 0.316 µM)?
Its viability, T/C is 10.1% [middle of 11 runs].

What about the viability, T/C (compound 1 µM) of the same compound?
The viability, T/C was 9.35% [middle of 12 runs].

What about the viability, T/C (compound 3.16 µM) of the same compound?
The viability, T/C was 9.17% [middle of 12 runs].

What about the viability, T/C (compound 10 µM) of the same compound?
Its viability, T/C is 11.8% [middle of 12 runs].
